Reference: patent publication US20250163057A1, “DCN-1 MODULATING COMPOUNDS AND METHODS OF USE THEREOF” (Cellarity, Inc., priority 2023, published 2025)

Tests used:
[1] = system: fetal hemoglobin protein; test: HbF HPLC Cell Culture Assay; type: cell-based; conditions: for Hemoglobin HPLC Ymax obs (%): relative to a control compound; for EC50: 336 h, HbF induction, Day 14 of culture
Description: A Cell Culture Assay was performed to evaluate the ability of compounds to induce fetal hemoglobin in a cell culture. The amount fetal hemoglobin protein induced was measured by HPLC.
Cell culture began on Day −4 (thaw day). Thaw buffer was prepared by sterile filtering 6 mL of Human Serum Albumin and 144 mL of PBS to make sterile 1% I/PBS. Cells were removed from liquid nitrogen storage and mostly thawed in a 37° C. water bath. Once the ice in the cryovials was melted, cells were transferred quickly into a 50 mL conical tube. Cryovial was rinsed once with thaw buffer and buffer was transferred over to the conical tube as well. Next, doubling volumes of thaw buffer was added to the conical and gently swirled for ˜30 seconds to one minute (for example: 2 mL was added and swirled, then 4 mL, then 8 mL, and so on) until the volume in the conical is 32 mL. Cells and buffer were centrifuged at 300G for 8 minutes, and the supernatant was aspirated. Another 32 mL of thaw buffer was added slowly, swirling the tube. The tube was again centrifuged at 300G for 8 minutes and the supernatant was aspirated. Cells were counted by resuspending in 1 mL of expansion media and counting with AOPI to determine the concentration of cells/mL.
On day 2, Passage & Treatment Day, each cell culture well was counted. Next fresh CD34 Expansion Media was made which contained StemSpan SFEM, CC100 and TPO all from StemCell technologies. Appropriate volume of cells was collected, centrifuged at 300 g and resuspended in fresh media. Cells were plated in treatment format at a density of 200,000 cells/ml, 25,000 cells/well. Finally, they were treated with test compounds as well as positive and negative controls.
On Days 0, 3 & 5 the same process was carried out. First, each cell culture well was counted. Next Phase 1 Erythroid Differentiation Media was freshly made, which contained StemSpan SFEM, 2.5 U/ml EPO, 0.5 mg/ml Holo-TF, 1× Glutamax, 5 μl/ml chemically defined lipid mixture, 10 ng/ml insulin, 50 ng/ml SCF, 10 ng/ml IL-3. Appropriate volume of cells was collected, centrifuged at 300 g and resuspended in fresh media. Cells should now be in fresh wells at a density of 100,000 cells/ml. 60,000 cells, 60,000 cells and 100,000 cells for days 0, 3, 5 respectively. Finally, fresh compound was added to each well at each timepoint (Days 0, 3 & 5).
On Day 7 media and cell culture density changes. Each cell culture well was counted. Next, Phase 2 Erythroid Differentiation Media was freshly made, which contains StemSpan SFEM, 2.5 U/ml EPO, 0.5 mg/ml Holo-TF, 1× Glutamax, 5 μl/ml chemically defined lipid mixture, 10 ng/ml insulin, 50 ng/ml SCF. Appropriate volume of cells was collected, centrifuged at 300 g and resuspended in fresh media. Cells were plated in fresh wells at a density of 500,000 cells/ml, 300,000 cells/well. Finally, fresh compound was added to each well at Day 7 timepoint.
On Day 10 media formulation is once again changed. Each cell culture well was counted. Fresh Phase 3 Erythroid Differentiation Media was made which contains StemSpan SFEM, 2.5 U/ml EPO, 0.5 mg/ml Holo-TF, 1× Glutamax, 5 μl/ml chemically defined lipid mixture, 10 ng/ml insulin. Appropriate volume of cells was collected, centrifuged at 300 g and resuspended in fresh media. Cells were plated in fresh wells at a density of 500,000 cells/ml, 500,000 cells/well. Finally, fresh compound was added to each well at Day 10 timepoint.
On Day 12 the cell density is once again changed. Each cell culture well was counted. Fresh Phase 3 Erythroid Differentiation Media was made. Appropriate volume of cells was collected, centrifuged at 300 g and resuspended in fresh media. Cells were plated in fresh wells at a density of 1,000,000 cells/ml, 1,000,000 cells/well. Finally fresh compound was added to each well.
Day 14 (18th day of experiment) refers to the terminal day of culture. Each cell culture well was counted. Next between 150K and 650K cells were placed in a uniquely labeled 1.5 ml standard tube. […]

[2] = target: DCN2 (DCUND2) protein PONY domain (Homo sapiens (Human), UniProt Q6PH85); test: Measurement of Kinact/KI in the DCN2 TR-FRET Assay; type: binding
Sequence of DCN2 (DCUND2) protein PONY domain (Q6PH85 60-248): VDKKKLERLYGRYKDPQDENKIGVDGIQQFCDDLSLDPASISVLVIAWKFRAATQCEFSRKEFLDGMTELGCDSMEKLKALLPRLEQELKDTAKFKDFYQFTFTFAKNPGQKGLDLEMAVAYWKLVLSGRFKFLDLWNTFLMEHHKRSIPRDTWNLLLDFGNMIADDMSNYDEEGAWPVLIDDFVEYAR
Description: A TR-FRET Assay was performed to evaluate the ability of the compounds to bind DCN-2.
The time resolved—Forster's resonance energy transfer (TR-FRET) assay was designed following the protocol established in (Scott et al., Nat Chem Biol. 2017 August; 13(8): 850-857). A recombinant form of the DCN2 (DCUND2) protein PONY domain was produced using an E. coli expression system at Viva Biotech China. The DCN2 protein was biotinylated (EZ sulfo-NHS-LC-biotin; Thermofisher) for labeling with 2.5 nM streptavidin terbium (Tb) cryptate in the reaction. The probe was changed to a non-covalent DCN1 inhibitor labeled with carboxyfluorescein (FAM; Zhou et al, Nat Commun. 2017; 8: 1150). Buffer conditions were modified to enhance protein stability by replacing TritonX with 0.05% Tween20 and increasing NaCl to 200 mM. The compounds were screened against 0.31 nM DCN1 and 40 nM FAM-labeled probe in a 40 ul reaction volume. The TR-FRET ratio between Tb-DCN1 and the FAM-labeled probe was measured in a 384-well opti-plate (Perkin Elmer) using a plate reader (BMG) at after treatment with compound (final DMSO concentration of 0.1%). The ratio was normalized to the high (DCN1 and FAM-probe) and low (DCN1 and no probe) controls for a readout of % activity (=100*(x−low)/(high−low)).
The Kinact and KI measurements were taken to allow for continuous reads over 24 hrs. Plates were read every 5 min up to 1 hr, every 15 min up to 5 hr, and every hour up to […]. Kinact and KI were calculated based on the following equations (Krippendorff B F, et al. Mechanism-based inhibition: deriving K(I) and k(inact) directly from time-dependent IC(50) values. J BiomolScreen. 2009; Mons E et al. A Comprehensive Guide for Assessing Covalent Inhibition in Enzymatic Assays Illustrated with Kinetic Simulations. CurrProtoc. 2022) where the KM of the probe against DCN2 is 21.62 nM. The Kinact and KI values could be estimated from the tight curves of the IC50 values over time.

Row | SMILES | Hemoglobin HPLC Ymax obs (%) [1] | EC50 [1] [nM] | kinact/KI ([2]; read-out: Kinact/KI (converted)) [M⁻¹ s⁻¹] | Ki ([2]; time-dependent IC50 over 24 hrs) [nM] | kinact ([2]; time-dependent IC50 over 24 hrs, read-out: Kinact (converted)) [s⁻¹]
1 | CCN1C(=O)[C@@H](NC(=O)c2cccc(C(F)(F)F)c2)[C@@H](c2ccc(F)cc2)c2c(C(=O)N3CCC[C@H]3C#N)nn(-c3ccccc3)c21 (mixture of isomers) [Compound I-34] | ++ (Hemoglobin HPLC Ymax greater than 65.0 and less than or equal to 100.0) |  |  |  | 
2 | CCN1C(=O)[C@@H](NC(=O)c2cccc(C(F)(F)F)c2)[C@@H](c2ccc(F)cc2)c2c(C(=O)N3CS(=O)(=O)C[C@H]3C#N)nn(C3CCOCC3)c21 (mixture of isomers) [Compound I-661, N-((4S,5S)-3-(4-cyano-1,1-dioxidothiazolidine-3-carbonyl)-7-ethyl-4-(4-fluorophenyl)-6-oxo-1-(tetrahydro-2H-pyran-4-yl)-4,5,6,7-tetrahydro-1H-pyrazolo[3,4-b]pyridin-5-yl)-3-(trifluoromethyl)benzamide] | ++ (Hemoglobin HPLC Ymax greater than 65.0 and less than or equal to 100.0) | > 200 |  |  | 
3 | CCN1C(=O)[C@@H](NC(=O)c2cccc(C(F)(F)F)c2)[C@@H](c2ccc(F)cc2)c2c(CNC(=O)/C=C/C(=O)OC)nn(-c3ccccc3)c21 (racemic) [Compound I-3] | ++ (Hemoglobin HPLC Ymax greater than 65.0 and less than or equal to 100.0) | 50 to 200 |  |  | 
4 | C=C(CN1CCC1)C(=O)NCc1nn(-c2ccccc2)c2c1[C@H](c1ccc(F)cc1)[C@H](NC(=O)c1cccc(C(F)(F)F)c1)C(=O)N2CC (racemic) [Compound I-49, rac-N-((4R,5R)-3-((2-(azetidin-1-ylmethyl)acrylamido)methyl)-7-ethyl-4-(4-fluorophenyl)-6-oxo-1-phenyl-4,5,6,7-tetrahydro-1H-pyrazolo[3,4-b]pyridin-5-yl)-3-(trifluoromethyl)benzamide] | ++ (Hemoglobin HPLC Ymax greater than 65.0 and less than or equal to 100.0) | ≤ 50 |  |  | 
5 | CCN1C(=O)[C@@H](NC(=O)c2cccc(C(F)(F)F)c2)[C@@H](c2ccc(F)cc2)c2c(NC(=O)C3=CCC3)nn(-c3ccccc3)c21 (racemic) [Compound I-152] | ++ (Hemoglobin HPLC Ymax greater than 65.0 and less than or equal to 100.0) | > 200 |  |  | 
6 | CCN1C(=O)[C@@H](NC(=O)c2cccc(C(F)(F)F)c2)[C@@H](c2ccc(F)cc2)c2c(CN(C)C#N)nn(-c3ccccc3)c21 [Compound I-92] | + (Hemoglobin HPLC Ymax greater than or equal to 0.0 and less than or equal to 65.0) | > 200 |  |  | 
7 | CCN1C(=O)[C@@H](NC(=O)c2cccc(C(F)(F)F)c2)[C@@H](c2ccc(F)cc2)c2c(C(=O)NC3(C#N)CC3)nn(-c3ccccc3)c21 [Compound I-112] | +++ (Hemoglobin HPLC Ymax greater than 100.0) | > 200 |  |  | 
8 | C=C(CN1CCC1)C(=O)NCc1nn(-c2ccccc2)c2c1[C@@H](c1ccc(F)cc1)[C@H](NC(=O)c1cccc(C(F)(F)F)c1)C(=O)N2CC [Compound I-139] | ++ (Hemoglobin HPLC Ymax greater than 65.0 and less than or equal to 100.0) | ≤ 50 |  |  | 
9 | CCN1C(=O)[C@@H](NC(=O)c2cccc(C(F)(F)F)c2)[C@@H](c2ccc(F)cc2)c2c(CNC#N)nn(-c3ccccc3)c21 [Compound I-140, N-[(4S, 5S)-3-[(cyanoamino)methyl]-7-ethyl-4-(4-fluorophenyl)-6-oxo-1-phenyl-4,5-dihydropyrazolo[3,4-b]pyridine-5-yl]-3-(trifluoromethyl) benzamide] | + (Hemoglobin HPLC Ymax greater than or equal to 0.0 and less than or equal to 65.0) | > 200 |  |  | 
10 | CCN1C(=O)[C@@H](NC(=O)c2cccc(C(F)(F)F)c2)[C@@H](c2ccc(F)cc2)c2c(C(=O)N3[C@H](C#N)C[C@H]4C[C@H]43)nn(-c3ccccc3)c21 [Compound I-277] | ++ (Hemoglobin HPLC Ymax greater than 65.0 and less than or equal to 100.0) | ≤ 50 |  |  | 
11 | CCN1C(=O)[C@@H](NC(=O)c2cccc(C(F)(F)F)c2)[C@@H](c2ccc(F)cc2)c2c(C(=O)N3CCC[C@H]3C#N)nn(-c3ccccc3)c21 [Compound I-278] | + (Hemoglobin HPLC Ymax greater than or equal to 0.0 and less than or equal to 65.0) | > 200 |  |  | 
12 | CCN1C(=O)[C@@H](NC(=O)c2cccc(C(F)(F)F)c2)[C@@H](c2ccc(F)cc2)c2c(C(=O)N3CCNCC3C#N)nn(C3CCOCC3)c21 (some centres unmarked) [Compound I-334] | ++ (Hemoglobin HPLC Ymax greater than 65.0 and less than or equal to 100.0) | 50 to 200 |  |  | 
13 | CCN1C(=O)[C@@H](NC(=O)c2cccc(C(F)(F)F)c2)[C@@H](c2ccc(F)cc2)c2c(C(=O)N3CCNC[C@H]3C#N)nn(C3CCOCC3)c21 [Compound I-363, N-((4S,5S)-3-((S)-2-cyanopiperazine-1-carbonyl)-7-ethyl-4-(4-fluorophenyl)-6-oxo-1-(tetrahydro-2H-pyran-4-yl)-4,5,6,7-tetrahydro-1H-pyrazolo[3,4-b]pyridin-5-yl)-3-(trifluoromethyl)benzamide] |  |  | 263000 | 17.4 | 0.00459
14 | CCN1C(=O)[C@@H](NC(=O)c2cccc(C(F)(F)F)c2)[C@@H](C2CC2)c2c(C(=O)N3CC[C@H](OC)[C@H]3C#N)nn(C3CCOCC3)c21 [Compound I-418] | +++ (Hemoglobin HPLC Ymax greater than 100.0) | ≤ 50 |  |  | 
15 | CCN1C(=O)[C@@H](NC(=O)c2cccc(C(F)(F)F)c2)[C@@H](C2CC2)c2c(C(=O)N(C)[C@H](C)C#N)nn(C3CCOCC3)c21 [Compound I-422] | ++ (Hemoglobin HPLC Ymax greater than 65.0 and less than or equal to 100.0) | 50 to 200 |  |  | 
16 | CCN1C(=O)[C@@H](NC(=O)c2cccc(C(F)(F)F)c2)[C@@H](C2CCC2)c2c(C(=O)N3CCC[C@H]3C#N)nn(C3CCOCC3)c21 [Compound I-692] | ++ (Hemoglobin HPLC Ymax greater than 65.0 and less than or equal to 100.0) | > 200 |  |  | 
